# Like-named read-outs stand apart in the source and are kept apart here.
# Key:
# Type in all cases: physicochemical
# [1] = Specific surface area by nitrogen adsorption isotherms (BET); settings: for Specific surface area: nitrogen adsorption isotherms, BET
# Procedure: Specific surface area of the porous anhydrous crystalline trehalose was measured by the nitrogen adsorption isotherms using “MODEL ASAP-2400”, a specific surface area/pore size distribution analyzer commercialized by Micromeritics, Georgia, USA. […] The result was analyzed by the BET (Brunnauer, Emmet, and Teller) method. The commercial anhydrous crystalline trehalose, a reagent grade, commercialized by Hayashibara Biochemical Laboratories Inc., Okayama, Japan, was used as a control. […] Further, those pore size distribution charts are in FIG. 19. […] The results of the analysis on the specific surface area and the pore size distribution are summarized in Table 7, and the pore size distribution chart was in FIG. 24. As a control, “MALTOSE OM”, a hydrous crystalline maltose product with maltose purity of 98% or higher, produced by Hayashibara Co., Ltd., Okayama, Japan, was used.
# [2] = Pore size distribution by the mercury filling method; settings: for Median pore diameter: control maltose values are from space between particles, not pores
# [3] = Dissolution test against cold water at 10° C.; settings: for Time required for dissolution, No. 1 / Time required for dissolution, No. 2 / Time required for dissolution, No. 3 / Time required for dissolution, No. 4 / Time required for dissolution, No. 5 / Time required for dissolution, Average: 20 ml water 10° C., about 300 rpm, 0.5 g trehalose or 0.2 g maltose; for Time required for dissolution, Average: average of 5; for Dissolution in cold water in comparison with controls: cold water 10° C.
# Procedure: A dissolution test against cold water at 10° C. was carried out using the porous anhydrous crystalline trehalose prepared by treating at 70° C. for 60 min in Example 1, the porous anhydrous crystalline maltose prepared by the method in Example 3, and the porous hydrous crystalline maltose prepared by the method in Example 5, as samples. The results were compared with those of the controls, anhydrous crystalline trehalose, hydrous crystalline trehalose, and hydrous crystalline maltose.
# Twenty milliliters of 10° C.-cold water was placed in a test tube with an internal diameter of 18 mm, and then stirred using a stirring bar. A crystalline saccharide sample was put into the test tube, and the time required for the complete dissolution (for the disappearance of precipitate particles) was measured. The amount of samples was set to be 0.5 g in the case of trehalose and to be 0.2 g in the case of maltose, and the stirring rate was set to be about 300 rpm in any case. The measurement of time for dissolution under the above conditions was carried out 5-times at each sample.
# [4] = Oil-keeping ability with salad oil; set-up: key to Oil-keeping ability: (5 g salad oil / g saccharide added at endpoint) x 100; settings: for Oil-keeping ability: (5 g salad oil / amount of added saccharide) x 100
# Procedure: The oil-keeping ability of each crystalline saccharide was measured using the porous anhydrous crystalline trehalose prepared by treating at 70° C. for 60 min in Example 1, the control hydrous crystalline trehalose, and the control anhydrous crystalline trehalose as crystalline trehalose samples; and the porous anhydrous crystalline maltose prepared by the method in Example 3, the control hydrous crystalline β-maltose, and the control anhydrous crystalline α-maltose, and the control anhydrous crystalline β-maltose as crystalline maltose samples, and the results were compared.
# The measurement of the oil-keeping ability of the crystalline saccharide was carried out according to the method disclosed in Japanese Patent Kokai No. 31,650/84. Five grams of “NISSHIN SALAD OIL”, a salad oil commercialized by Nisshin OiliO Group, Ltd., Tokyo, Japan, was placed in a 50-ml plastic container, and then gradually admixed with each powdery crystalline saccharide with stirring. […] When the amount of the mixed saccharide is further increased, the agglomerate increase in solidity and then loosen. The point that the agglomerate is loosened is estimated to be the endpoint and the oil-keeping ability was calculated using the following formula. Oil-Keeping Ability =(The amount of salad oil(5 g)/the amount of added PCS*)×100 *: Powdery crystalline saccharide tm Formula 1
# [5] = Crystal moisture content (Karl Fischer) on moisture absorption and drying
# Procedure: Hydrous crystalline saccharides were prepared from the respective porous anhydrous crystalline saccharide using the porous anhydrous crystalline trehalose, obtained by treating at 70° C. for 60 min in Example 1, and the porous anhydrous crystalline maltose, obtained by treating at 70° C. for 480 min in Example 3, as materials. About 50 g of the porous anhydrous crystalline saccharide and about 150 ml of deionized water were placed in respective container. Then, the both open containers were placed in the same closed vessel and leaved to stand at 27° C. for two days. By the treatment, the anhydrous crystalline saccharide was allowed to absorb moisture and converted into hydrous crystal. The resulting hydrous crystal was dried in a drying machine at 50° C. for one hour to remove excess moisture. The moisture contents of the porous anhydrous crystalline trehalose and the porous anhydrous crystalline maltose before and after the treatment to absorb moisture and after drying are in Table 6. The moisture content of crystals was measured by the conventional Karl Fischer's method.
# [6] = Flax seed oil powder: keeping of powdery form; settings: 1 part flax seed oil + 10 parts saccharide as base; listed as control hydrous crystalline trehalose
# Procedure: One part by weight of flax seed oil was admixed with 10 parts by weight of the porous anhydrous crystalline trehalose, prepared by treating at 70° C. for 60 min in Example 1, and then the mixture was kneaded to make into a powdery product. In the same manner, powdery products were prepared by using “TREHA®”, hydrous crystalline trehalose commercialized by Hayashibara Shoji Inc., Okayama, Japan, and anhydrous crystalline trehalose, prepared from hydrous crystalline trehalose by drying in vacuo at a high temperature according to the conventional method, as controls. […] The flaxseed oil powder can be preferably used as a supplement.
# [7] = listed as porous anhydrous crystalline maltose
# [8] = listed as Porous anhydrous crystalline β-maltose (Present invention)
# [9] = listed as porous hydrous crystalline maltose
# [10] = listed as Porous hydrous crystalline β-maltose (Present invention)
Compound,Specific surface area [1],Intrusion volume [2],Median pore diameter [2],"Time required for dissolution, No. 1 [3]","Time required for dissolution, No. 2 [3]","Time required for dissolution, No. 3 [3]","Time required for dissolution, No. 4 [3]","Time required for dissolution, No. 5 [3]","Time required for dissolution, Average [3]",Oil-keeping ability [4],other results
OC[C@H]1O[C@H](O[C@H]2[C@H](O)[C@@H](O)C(O)O[C@@H]2CO)[C@H](O)[C@@H](O)[C@@H]1O (mixture of isomers) [Anhydrous crystalline α-maltose (Control)] [reference compound],0.48 m^2/g,(No pore),13.00 μm,37 s,35 s,39 s,38 s,36 s,37 s,41.7,Specific surface area ([1]; listed as anhydrous crystalline α-maltose): 0.48 m^2/g
OC[C@H]1O[C@H](O[C@H]2[C@H](O)[C@@H](O)C(O)O[C@@H]2CO)[C@H](O)[C@@H](O)[C@@H]1O (mixture of isomers) [Anhydrous crystalline β-maltose (Control)] [reference compound],0.82 m^2/g,(No pore),14.70 μm,,,,,,,40,Specific surface area ([1]; listed as anhydrous crystalline β-maltose): 0.82 m^2/g
"OC[C@H]1O[C@H](O[C@H]2[C@H](O)[C@@H](O)C(O)O[C@@H]2CO)[C@H](O)[C@@H](O)[C@@H]1O (mixture of isomers) [Hydrous crystalline β-maltose (Control), maltose]",0.46 m^2/g,(No pore),11.20 μm,118 s,113 s,114 s,119 s,116 s,116 s,,Specific surface area ([1]; listed as control hydrous crystalline β-maltose): 0.46 m^2/g; Specific surface area ([1]; listed as hydrous crystalline β-maltose): 0.46 m^2/g; Oil-keeping ability ([4]; listed as Hydrous crystalline maltose (Control)): 45.5
"OC[C@H]1O[C@H](O[C@H]2O[C@H](CO)[C@@H](O)[C@H](O)[C@H]2O)[C@H](O)[C@@H](O)[C@@H]1O [Hydrous crystalline trehalose (Control), α-D-glucosyl α-D-glucoside]",,,,106 s,130 s,121 s,135 s,123 s,123 s,38.5,Oil-keeping ability ([4]; listed as control hydrous crystalline trehalose): 38.5; Powdery form of flax seed oil powder [6]: could not keep powdery forms
OC[C@H]1O[C@H](O[C@H]2O[C@H](CO)[C@@H](O)[C@H](O)[C@H]2O)[C@H](O)[C@@H](O)[C@@H]1O [Porous anhydrous crystalline trehalose (treated at 50° C. fo] [α-D-glucosyl α-D-glucoside],3.306 m^2/g,0.22 mL/g,0.21 μm,,,,,,,,Mode pore diameter [2]: 0.29 μm; Remarks (pores) [2]: Having clear pores

# Further lines, with some results ahead:
Specific surface area [1],Intrusion volume [2],Median pore diameter [2],"Time required for dissolution, No. 1 [3]","Time required for dissolution, No. 2 [3]","Time required for dissolution, No. 3 [3]","Time required for dissolution, No. 4 [3]","Time required for dissolution, No. 5 [3]","Time required for dissolution, Average [3]",Oil-keeping ability [4],Compound,other results
3.39 m^2/g,1.05 mL/g,1.26 μm,,,,,,,,"OC[C@H]1O[C@H](O[C@H]2[C@H](O)[C@@H](O)C(O)O[C@@H]2CO)[C@H](O)[C@@H](O)[C@@H]1O (mixture of isomers) [Porous anhydrous crystalline maltose, maltose]","Specific surface area [1, 7]: 3.39 m^2/g; Pore diameter of clear peak in pore size distribution chart [2]: less than 5 μm; Intrusion volume [2, 7]: 1.05 mL/g; Crystal moisture content, after drying ([5]; after moisture absorption and drying at 50° C. for one hour): 5.14 %, w/w; Crystal moisture content, before treatment ([5]; before moisture absorption): 0.32 %, w/w; Crystal moisture content, after treatment ([5]; closed vessel with water, 27° C., two days): 7.35 %, w/w; Time required for dissolution, No. 1 [3, 8]: 30 s; Time required for dissolution, No. 2 [3, 8]: 31 s; Time required for dissolution, No. 3 [3, 8]: 33 s; Time required for dissolution, No. 4 [3, 8]: 29 s; Time required for dissolution, No. 5 [3, 8]: 32 s; Time required for dissolution, Average [3, 8]: 31 s; Dissolution in cold water in comparison with controls [3]: rapidly dissolved in cold water; Oil-keeping ability [4, 8]: 143; Oil-keeping ability ([4]; listed as porous anhydrous crystalline β-maltose): 143; Oil-keeping ability relative to control ([4]; compared with control crystalline saccharide): about 3 folds"
1.39 m^2/g,0.77 mL/g,2.82 μm,,,,,,,,"OC[C@H]1O[C@H](O[C@H]2[C@H](O)[C@@H](O)C(O)O[C@@H]2CO)[C@H](O)[C@@H](O)[C@@H]1O (mixture of isomers) [Porous hydrous crystalline maltose, maltose]","Specific surface area relative to control crystalline saccharide ([1]; compared with control(s)): about 3 folds; Specific surface area [1, 9]: 1.39 m^2/g; Pore diameter of clear peak in pore size distribution chart [2]: less than 5 μm; Intrusion volume [2, 9]: 0.77 mL/g; Time required for dissolution, No. 1 [3, 10]: 67 s; Time required for dissolution, No. 2 [3, 10]: 66 s; Time required for dissolution, No. 3 [3, 10]: 64 s; Time required for dissolution, No. 4 [3, 10]: 68 s; Time required for dissolution, No. 5 [3, 10]: 65 s; Time required for dissolution, Average [3, 10]: 66 s; Dissolution in cold water in comparison with controls [3]: rapidly dissolved in cold water"

# From patent publication US8188268B2, “Porous crystalline saccharide, its preparation and uses” (Kabushiki Kaisha Hayashibara Seibutsu Kagaku Kenkyujo, priority 2005, dated 2012)
